In ChEMBL document CHEMBL1122993, “3-Alkyl-3-hydroxyglutaric acids: a new class of hypocholesterolemic HMG CoA reductase inhibitors. 1” (J Med Chem, 1985):

Columns and labels:
[1] = biological target: T1, 3-hydroxy-3-methylglutaryl-coenzyme A reductase (Rattus norvegicus) (UniProt P51639); assay: In vitro inhibition of rat liver HMG-CoA reductase at concentration of 10e-3 M
T1 sequence (whole entry): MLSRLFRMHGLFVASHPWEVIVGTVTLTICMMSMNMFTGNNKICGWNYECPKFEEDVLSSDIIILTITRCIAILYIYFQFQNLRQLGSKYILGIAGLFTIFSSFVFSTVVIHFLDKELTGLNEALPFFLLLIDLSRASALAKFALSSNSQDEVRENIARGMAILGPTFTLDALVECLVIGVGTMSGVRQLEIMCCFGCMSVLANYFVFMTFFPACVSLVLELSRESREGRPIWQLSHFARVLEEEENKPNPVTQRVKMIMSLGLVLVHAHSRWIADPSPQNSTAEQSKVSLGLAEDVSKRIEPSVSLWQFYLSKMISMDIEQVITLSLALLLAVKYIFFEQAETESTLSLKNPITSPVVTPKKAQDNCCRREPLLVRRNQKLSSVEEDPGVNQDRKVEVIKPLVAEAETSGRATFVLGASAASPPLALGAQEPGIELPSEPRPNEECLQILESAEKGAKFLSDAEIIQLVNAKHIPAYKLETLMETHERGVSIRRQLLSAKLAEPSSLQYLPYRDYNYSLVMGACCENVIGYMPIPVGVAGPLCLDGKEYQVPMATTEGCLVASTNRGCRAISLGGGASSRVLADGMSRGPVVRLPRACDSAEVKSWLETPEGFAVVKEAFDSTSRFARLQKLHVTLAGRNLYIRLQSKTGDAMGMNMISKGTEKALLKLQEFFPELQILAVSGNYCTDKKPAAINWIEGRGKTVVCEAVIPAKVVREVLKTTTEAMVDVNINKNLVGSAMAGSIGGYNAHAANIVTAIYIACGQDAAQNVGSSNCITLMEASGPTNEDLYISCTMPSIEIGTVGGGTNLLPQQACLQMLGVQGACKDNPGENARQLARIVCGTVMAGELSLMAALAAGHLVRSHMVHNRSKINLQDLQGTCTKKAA

Rattus norvegicus [2] = assay: Percent reduction of Serum Cholesterol in Triton-treated rat at dose 200 mg/kg by intragastric administration (p<0.01); assay type: functional
Rattus norvegicus [3] = assay: Percent reduction of Serum Cholesterol in Triton-treated rat at dose 100 mg/kg by intragastric administration (p<0.01); assay type: functional
Rattus norvegicus [4] = assay: Percent reduction of Serum Cholesterol in Triton-treated rat at dose 300 mg/kg by intragastric administration (p<0.01); assay type: functional
[5] = biological target: T2, 3-hydroxy-3-methylglutaryl-coenzyme A reductase (Rattus norvegicus, UniProt P51639); assay: Inhibition of HMG-CoA reductase from rat liver
T2 sequence (P51639 whole entry): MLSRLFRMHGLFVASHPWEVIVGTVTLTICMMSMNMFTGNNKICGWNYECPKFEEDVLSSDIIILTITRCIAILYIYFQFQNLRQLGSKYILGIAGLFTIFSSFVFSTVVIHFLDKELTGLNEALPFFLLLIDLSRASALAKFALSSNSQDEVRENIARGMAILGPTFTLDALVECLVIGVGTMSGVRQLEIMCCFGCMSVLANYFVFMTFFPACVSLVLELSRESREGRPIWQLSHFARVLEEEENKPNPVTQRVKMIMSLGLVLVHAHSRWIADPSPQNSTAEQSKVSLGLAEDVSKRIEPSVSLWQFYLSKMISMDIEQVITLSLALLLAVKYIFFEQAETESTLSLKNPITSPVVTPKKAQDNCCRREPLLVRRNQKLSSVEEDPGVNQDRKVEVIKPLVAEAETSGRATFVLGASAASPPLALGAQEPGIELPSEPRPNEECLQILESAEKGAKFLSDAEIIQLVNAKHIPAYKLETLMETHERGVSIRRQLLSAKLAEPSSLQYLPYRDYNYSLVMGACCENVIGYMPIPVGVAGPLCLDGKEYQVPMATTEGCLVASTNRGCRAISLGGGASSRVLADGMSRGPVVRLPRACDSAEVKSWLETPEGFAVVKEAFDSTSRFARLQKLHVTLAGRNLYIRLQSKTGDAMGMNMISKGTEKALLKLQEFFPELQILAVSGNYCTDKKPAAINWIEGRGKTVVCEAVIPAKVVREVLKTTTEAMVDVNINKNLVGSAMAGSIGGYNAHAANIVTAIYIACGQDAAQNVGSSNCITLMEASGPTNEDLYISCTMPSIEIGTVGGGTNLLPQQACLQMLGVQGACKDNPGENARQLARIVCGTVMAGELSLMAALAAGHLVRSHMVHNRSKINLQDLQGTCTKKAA

Rattus norvegicus [6] = assay: Percent reduction of HMGR activity in diazasterol-treated rat at dose 100 mg/kg by intragastric administration (p<0.05); assay type: functional
Rattus norvegicus [7] = assay: Percent reduction of HMGR activity in diazasterol-treated rat at dose 50 mg/kg by intragastric administration (p<0.05); assay type: functional
Rattus norvegicus [8] = assay: Percent reduction of HMGR activity in diazasterol-treated rat at dose 20 mg/kg by intragastric administration (p<0.05); assay type: functional
Rattus norvegicus [9] = assay: Percent reduction of HMGR activity in diazasterol-treated rat at dose 10 mg/kg by intragastric administration; assay type: functional
Rattus norvegicus [10] = assay: Percent reduction of Serum Cholesterol in Triton-treated rat at dose 80 mg/kg by intragastric administration; assay type: functional
Rattus norvegicus [11] = assay: Percent reduction of Serum Cholesterol in Triton-treated rat at dose 50 mg/kg by intragastric administration; assay type: functional
[12] = substrate: CCCCCCCCCCCCCCCC(O)(CC(=O)O)CC(=O)O
Description: Competitive inhibition of HMG-CoA reductase

Q: For `CCC(O)(CC(=O)O)CC(=O)O`, which inhibition [1] is on record?
A: 29%

Q: `CCCCCCC(O)(CC(=O)O)CC(=O)O` was tested. Which inhibition [1] did it give?
A: 5%

Q: `CC(C)C(O)(CC(=O)O)CC(=O)O` was tested. Which inhibition [1] did it give?
A: 10%

Q: For `CCCCCCCCCCC(O)(CCO)CCO`, which inhibition [1] is on record?
A: 0%

Q: How did the inhibition [1] turn out when `CCCC(O)(CC(=O)O)CC(=O)O` was run?
A: 37%

Q: For `CC1(O)CC(=O)OC(=O)C1`, which inhibition [1] is on record?
A: 0%

Q: `CCCCCCCCCCC1(O)CCOC(=O)C1` (stereo not given) was tested. Which inhibition [1] did it give?
A: 57%

Q: With `CCCCCCCCCCCCCCCC(O)(CC(=O)O)CC(=O)OCCN(C)C` (stereo not given) as the molecule, how does the inhibition [1] read?
A: 0%

Q: For `CCCCCCCCCCCCCCCC(O)(CCO)CCO`, which inhibition [1] is on record?
A: 0%

Q: Which Reduction (Rattus norvegicus [2]) does the source give for `CCCCCCCCCCCCCCCC(O)(CC(=O)OCC)CC(=O)OCC` here?
A: 3%

Q: `CC(O)(CC(=O)O)CC(=O)O` was tested. Which inhibition [1] did it give?
A: 0%

Q: For `CCCCCCCCCCCCCCC/C(=C\C(=O)O)CC(=O)O`, which inhibition [1] is on record?
A: 0%

Q: Which Reduction (Rattus norvegicus [3]) does the source give for `CCCCCCCCCCCCCCCC(O)(CC(=O)OC)CC(=O)OC` here?
A: 4%

Q: What about the Reduction (Rattus norvegicus [4]) of the same molecule?
A: 2%

Q: And the inhibition [1]?
A: 1%

Q: What about the Reduction (Rattus norvegicus [2]) of the same molecule?
A: 4%

Q: How did the IC50 [5] turn out when `CCCCCCCCCCCCCCCC(O)(CC(=O)O)CC(=O)O` was run?
A: 50 µM

Q: And the Reduction (Rattus norvegicus [6])?
A: 40%

Q: And the Reduction (Rattus norvegicus [3])?
A: 4%

Q: What about the Reduction (Rattus norvegicus [7]) of the same molecule?
A: 31%

Q: What about the Reduction (Rattus norvegicus [4]) of the same molecule?
A: 22%

Q: And the inhibition [1]?
A: 99%

Q: And the Reduction (Rattus norvegicus [2])?
A: 17%

Q: And the Reduction (Rattus norvegicus [8])?
A: 27%

Q: `CCOC(=O)CC(C)(O)CC(=O)OCC` was tested. Which inhibition [1] did it give?
A: 0%

Q: How did the inhibition [1] turn out when `CC1(O)CC(=O)NC(=O)C1` was run?
A: 50%

Q: Which results are given for `CC[C@H](C)C(=O)O[C@H]1CCC=C2C=C[C@H](C)[C@H](CC[C@@H]3C[C@@H](O)CC(=O)O3)[C@H]21` [MEVASTATIN]?
A: Reduction (Rattus norvegicus [9]): 60%; Reduction (Rattus norvegicus [10]): 28%; Reduction (Rattus norvegicus [11]): 17%

Q: `CCCCCCCCCCC(O)(CC(=O)OCC)CC(=O)OCC` was tested. Which inhibition [1] did it give?
A: 0%

Q: How did the inhibition [1] turn out when `COC(=O)CC(C)(O)CC(N)=O` (stereo not given) was run?
A: 0%

Q: Which inhibition [1] does the source give for `CCCCCCCCCCCCCCCC1(OC(C)=O)CC(=O)OC(=O)C1` here?
A: 9%

Q: Which IC50 [5] does the source give for `CCCCCCCCCCCCCCCCCCCC(O)(CC(=O)O)CC(=O)O` here?
A: 350 µM

Q: And the inhibition [1]?
A: 86%

B1: 3-hydroxy-3-methylglutaryl-coenzyme A reductase (Rattus norvegicus), P51639 (protein)
chain: MLSRLFRMHGLFVASHPWEVIVGTVTLTICMMSMNMFTGNNKICGWNYECPKFEEDVLSSDIIILTITRCIAILYIYFQFQNLRQLGSKYILGIAGLFTIFSSFVFSTVVIHFLDKELTGLNEALPFFLLLIDLSRASALAKFALSSNSQDEVRENIARGMAILGPTFTLDALVECLVIGVGTMSGVRQLEIMCCFGCMSVLANYFVFMTFFPACVSLVLELSRESREGRPIWQLSHFARVLEEEENKPNPVTQRVKMIMSLGLVLVHAHSRWIADPSPQNSTAEQSKVSLGLAEDVSKRIEPSVSLWQFYLSKMISMDIEQVITLSLALLLAVKYIFFEQAETESTLSLKNPITSPVVTPKKAQDNCCRREPLLVRRNQKLSSVEEDPGVNQDRKVEVIKPLVAEAETSGRATFVLGASAASPPLALGAQEPGIELPSEPRPNEECLQILESAEKGAKFLSDAEIIQLVNAKHIPAYKLETLMETHERGVSIRRQLLSAKLAEPSSLQYLPYRDYNYSLVMGACCENVIGYMPIPVGVAGPLCLDGKEYQVPMATTEGCLVASTNRGCRAISLGGGASSRVLADGMSRGPVVRLPRACDSAEVKSWLETPEGFAVVKEAFDSTSRFARLQKLHVTLAGRNLYIRLQSKTGDAMGMNMISKGTEKALLKLQEFFPELQILAVSGNYCTDKKPAAINWIEGRGKTVVCEAVIPAKVVREVLKTTTEAMVDVNINKNLVGSAMAGSIGGYNAHAANIVTAIYIACGQDAAQNVGSSNCITLMEASGPTNEDLYISCTMPSIEIGTVGGGTNLLPQQACLQMLGVQGACKDNPGENARQLARIVCGTVMAGELSLMAALAAGHLVRSHMVHNRSKINLQDLQGTCTKKAA
Q: How did the Km [12] turn out when B1 was run?
A: 8 µM
